Bounds are passed on as bounds.

Data on eight compounds can be found in patent publication US10513529B2, “1,2,4-triazolo-[3,4-b]-1,3,4-thiadiazole derivatives” (GALENICA S.A., priority 2016, dated 2019).

Common to all, as to type: cell-based
In experiment [1] the test system is MCF-7 human breast cancer cell line. Description: MTT cytostatic-cytotoxic activity, MCF-7. The following applies: for GI50 / IC50: Homo sapiens; for GI50: MCF7, 48 h; for GI50 / TGI: MCF-7, 48 h treatment; for IC50: MCF7, MCF-7, 48 h treatment, kills 50% of the cells.
Experiment [2] relates to SKOV-3 human ovarian cancer cell line. Description: MTT cytostatic-cytotoxic activity, SKOV-3. The following applies: for GI50 / IC50: Homo sapiens, SK-OV-3, SKOV-3, 48 h treatment; for IC50: kills 50% of the cells; for TGI: SKOV-3, 48 h treatment. On the procedure: (§1) SKOV-3 (SKOV-3) (ATCC HTB 77) and OVCAR-3 (ATCC® HTB-161™)
(§2) Human ovarian adenocarcinoma cells, which are grown easily in monolayer culture with epithelial-like morphology. SKOV-3 are resistant to tumor necrosis factor (TNF) and to other cytotoxic drugs such as cisplatin, and adriamycin, while OVCAR-3 are resistant to adriamycin, cisplatin and melphalan. These cell lines express androgens, estrogens and progesterone receptors. When SKOV-3 or OVCAR-3 cells are subcutaneously implanted in nude mice, SCID mice, a moderately differentiated tumor develops, and the resulting model resembles primary ovarian adenocarcinoma in humans.
(§3) All cancer cell lines are stored in a liquid nitrogen tank in 2.5 ml cryovials (Corning-Costar, Cambridge, Mass.). DMSO (dimethylsulfoxide) act as a cryoprotectant and is added to prevent the formation of ice crystals which may lyse the cells. The Cells were grown as monolayer cultures in T-75 flasks (Corning-Costar, Cambridge, Mass.) and maintained at 37° C. in 5% CO2 incubator & 100% relative humidity. The cultures medium used are McCoy's 5a Medium, supplemented with 10% fetal bovine serum (FBS, Gibco) and 1% antibiotics (100 IU/ml penicillin/100 µg/ml streptomycin), sterilized by filtration (Corning-Costar filter, diameter 0.2 μm, RPMI-1640 and 50% RPMI-1640 (Catalog No 30-2001) plus 50% Mammary Epithelial Growth Medium (MEGM), supplemented with 10% fetal bovine serum (FBS, Gibco) and 1% antibiotics (100 IU/ml penicillin/100 μg/ml streptomycin). The passage is performed every 3-4 to days as follows: Cells are washed with sterile PBS (Phosphate buffered saline): 8 g/l NaCl, 0,2 g/l KCl, 1,15 g/l Na2HPO4καl 0,2 g/l KH2PO4. pH:7,4), add 2-3 ml 0.05% trypsin (Gibco 1:250) and 0.02% EDTA to cover the monolayer and incubate the flask at 3TC for 5-10 minutes. Trypsin-EDTA, is used mainly to detach the cells from the flask and prepare a single cell suspension. Finally, the number of cells can be determined by direct counting using a Neubauer chamber and cell viability is determined by staining the cells with trypan blue.
(§4) In the experimental study the in vitro effect of the compound type (I) was evaluated against ovarian cancer cell lines UWB1.289, UWB1.289+BRCA1 Kai SKOV-3.The cells were plated in 96-well plate (MTP) at a density of 1×10^4cells/m1 per well and maintained for 72 h at 3TC in a 5% CO2 incubator and grown as monolayers. The selection of the initial number of cells was made according to the rate of proliferation of the cell line, in order the cells throughout the experiment are in an exponential (log) growth phase. After 24 hours, cells were treated with 1-100 μmol/l of the tested compounds for 48 h. Experiments were carried out using triplicate wells. The viability of cultured cells was estimated by an (3-(4,5-imethylthiazol-2-yl)-2,5-diphenyltetrazolium bromide (MTT) metabolic assay as described previously (Finlay G J, Wilson W R and Baguley B C: Comparison of in vitro activity of cytotoxic drugs towards human carcinoma and leukaemia cell lines. Eur J Cancer Clin Oncol 22: 655-662, 1986; Alley M C, Scudiero D A, Monks A, Hursey M L, Czerwinski M J, Fine D L, et al. Feasibility of drug screening with panels of human tumor cell lines using a microculture tetrazolium assay. Cancer Res 1988; 48:589-601). MTT (Sigma, St Louis, Mo., USA) was dissolved in PBS in a concentration of 5 mg/ml, filter sterilized, and stored at 4° C. MTT (50 μl of stock solution) was added to each culture and incubated for 3 h at 3TC to allow metabolization. Formazan crystals were solubilized by DMSO (100 μl). Absorbance of the converted dye was measured at a wavelength of 540nm on ELISA reader (BioTek, Winooski, Vt., USA).
(§5) GI50: The mean concentration that causes 50% inhibition of cell growth (Growth Inhibition 50%). The calculation of the value is based on the formula: (Tt72x)−(Ct24)/(Ct72)-(Ct24)×100=50
(§6) TGI: The mean concentration that causes 100% inhibition of cell growth (Total Growth Inhibition). […]

In experiment [3] the test system is OVCAR-3 human ovarian cancer cell line. Description: MTT cytostatic-cytotoxic activity, OVCAR-3. The following applies: OVCAR-3, 48 h treatment; for GI50 / IC50: Homo sapiens; for IC50: kills 50% of the cells. On the procedure: as §1, §2, §3, §4, §5, §6
The test system of experiment [4] is PC-3 human hormone-resistant prostate cancer cell line. Description: MTT cytostatic-cytotoxic activity, PC-3. The following applies: PC-3, 48 h treatment; for GI50 / IC50: Homo sapiens; for IC50: kills 50% of the cells.
Experiment [5] concerns all 9 human cancer cell lines. Description: MTT cytostatic-cytotoxic activity, all 9 human cancer cell lines.

For the compound `COc1cc(Cc2nnc3sc(/C=C/c4ccc(F)cc4)nn23)c(S(=O)(=O)N(C)C)cc1OC` [TS25, 3-[2-(N,N-dimethylsulfamoyl)-4,5-dimethoxybenzyl]-6-(E)-4-fluorostyryl-1,2,4-triazolo[3,4-b]-1,3,4-thiazole], the GI50 worked out at 16 µM in experiment [1], 18 µM in experiment [2], 24 µM in experiment [3] and 8 µM in experiment [4]. The IC50 in experiment [1] was found to be 86 µM; in experiment [2], 80 µM; in experiment [3], 94 µM; in experiment [4], 69 µM. Also, the total growth inhibition concentration (TGI) in experiment [1] was found to be 51 µM; in experiment [2] it was 52 µM; in experiment [3], 68 µM; in experiment [4], 24 µM.

With `COc1cc(Cc2nnc3sc(/C=C/c4ccc(Cl)cc4)nn23)c(S(=O)(=O)N(C)C)cc1OC` [TS26, 3-[2-(N,N-dimethylsulfamoyl)-4,5-dimethoxybenzyl]-6-(E)-4-chlorostyryl-1,2,4-triazolo[3,4-b]-1,3,4-thiazole], the GI50 was 25 µM in experiment [1], 38 µM in experiment [2], 41 µM in experiment [3] and 19 µM in experiment [4]. The IC50 in experiment [1] was over 100 µM; in experiment [2] it was over 100 µM; in experiment [3] it was over 100 µM; in experiment [4], 86 µM. The TGI turned out to be 67 µM in experiment [1], 72 µM in experiment [2], 87 µM in experiment [3] and 47 µM in experiment [4].

For `COc1ccc(Cc2nn3c(Cc4cc(OC)c(OC)cc4S(=O)(=O)N(C)C)nnc3s2)cc1` [TS50, 3-[2-(N,N-dimethylsulfamoyl)-4,5-dimethoxybenzyl]-6-(4-methoxybenzyl)-1,2,4-triazolo[3,4-b]-1,3,4-thiazole], the GI50 in experiment [1] turned out to be 40 µM; in experiment [2], 6 µM; in experiment [3] it was 5 µM; in experiment [4] it was 44 µM. Also, the IC50 in experiment [1], in experiment [2], in experiment [3] and in experiment [4] was over 100 µM throughout. For the same compound, the TGI is over 100 µM in experiment [1], over 100 µM in experiment [2], 86 µM in experiment [3] and over 100 µM in experiment [4].

In the case of `COc1cc(Cc2nnc3sc(-c4ccccc4N)nn23)c(S(=O)(=O)N(C)C)cc1OC` [TS57, 3-[2-(N,N-dimethylosulfamoyl)-4,5-dimethoxybenzyl]-6-(2-aminophenyl)-1,2,4-triazolo[3,4-b]-1,3,4-thiazole], the GI50 was over 100 µM in experiment [1], over 100 µM in experiment [2], 95 µM in experiment [3] and over 100 µM in experiment [4]. Further, the IC50 in experiment [1], in experiment [2], in experiment [3] and in experiment [4] was over 100 µM throughout. Also, the TGI in experiment [1], in experiment [2], in experiment [3] and in experiment [4] was over 100 µM each time.

As to `COc1cc(Cc2nnc3sc(Cc4ccccc4)nn23)c(S(=O)(=O)N(C)C)cc1OC` [TS62, 3-[2-(N,N-dimethylsulfamoyl)-4,5-dimethoxybenzyl]-6-benzyl-1,2,4-triazolo[3,4-b]-1,3,4-thiazole], the GI50 came out at 18 µM in experiment [1], 12 µM in experiment [2], 8 µM in experiment [3] and 27 µM in experiment [4]. Besides, the IC50 in experiment [1], in experiment [2], in experiment [3] and in experiment [4] was over 100 µM throughout. In addition, the TGI in experiment [1] is over 100 µM; in experiment [2] it was 56 µM; in experiment [3], 68 µM; in experiment [4] it was over 100 µM.

On to `COc1cc(Cc2nnc3sc(-c4ccc(Cl)cc4)nn23)c(S(=O)(=O)N(C)C)cc1OC` [TS63, 3-[2-(N,N-dimethylsulfamoyl)-4,5-dimethoxybenzyl]-6-(4-chlorophenyl)-1,2,4-triazolo[3,4-b]-1,3,4-thiazole], for which the GI50 is 22 µM in experiment [1], 8 µM in experiment [2], 3 µM in experiment [3] and 20 µM in experiment [4]. Besides, the IC50 in experiment [1], in experiment [2], in experiment [3] and in experiment [4] was over 100 µM throughout. For the same compound, the TGI in experiment [1] amounted to 50 µM; in experiment [2] it was 38 µM; in experiment [3], 32 µM; in experiment [4], 45 µM.

Turning to `COc1cc(Cc2nnc3sc(-c4ccc(N)cc4)nn23)c(S(=O)(=O)N(C)C)cc1OC` [TS71, 3-[2-(N,N-dimethylsulfamoyl)-4,5-dimethoxybenzyl]-6-(4-aminophenyl)-1,2,4-triazolo[3,4-b]-1,3,4-thiazole], the GI50 in experiment [1] is over 100 µM; in experiment [2], over 100 µM; in experiment [3], 97 µM; in experiment [4], over 100 µM. In addition, the IC50 in experiment [1], in experiment [2], in experiment [3] and in experiment [4] was over 100 µM each time. Besides, the TGI in experiment [1], in experiment [2], in experiment [3] and in experiment [4] was over 100 µM in each case.

For `COc1cc(Cc2nnc3sc(-c4ccccc4)nn23)c(S(=O)(=O)N(C)C)cc1OC` [TS167, 3-[2-(N,N-dimethylsulfamoyI)-4,5-dimethoxy-benzyl]-6-phenyl-1,2,4-triazolo[3,4-b]-1,3,4-thiazole], the GI50 in experiment [1] was 65 µM; in experiment [5] (in all 9 human cancer cell lines, read-out: IG50 (cytostatic)) it was under 100 µM; in experiment [2] it was 80 µM; in experiment [3], 65 µM; in experiment [4], 62 µM. For the same compound, the IC50 was over 100 µM in experiment [1]; over 100 µM in experiment [5] (Homo sapiens, read-out: (cytotoxic)); over 100 µM in experiment [2]; over 100 µM in experiment [3]; over 100 µM in experiment [4]. Also, the TGI in experiment [1], in experiment [2], in experiment [3] and in experiment [4] was over 100 µM each time.

In general, TGI refers to the concentration giving total growth inhibition.
